Legend:
[1] = biological target: T1, Alpha-1A adrenergic receptor (Homo sapiens, UniProt P35348); format: functional, cell-based
T1 sequence (P35348 whole entry): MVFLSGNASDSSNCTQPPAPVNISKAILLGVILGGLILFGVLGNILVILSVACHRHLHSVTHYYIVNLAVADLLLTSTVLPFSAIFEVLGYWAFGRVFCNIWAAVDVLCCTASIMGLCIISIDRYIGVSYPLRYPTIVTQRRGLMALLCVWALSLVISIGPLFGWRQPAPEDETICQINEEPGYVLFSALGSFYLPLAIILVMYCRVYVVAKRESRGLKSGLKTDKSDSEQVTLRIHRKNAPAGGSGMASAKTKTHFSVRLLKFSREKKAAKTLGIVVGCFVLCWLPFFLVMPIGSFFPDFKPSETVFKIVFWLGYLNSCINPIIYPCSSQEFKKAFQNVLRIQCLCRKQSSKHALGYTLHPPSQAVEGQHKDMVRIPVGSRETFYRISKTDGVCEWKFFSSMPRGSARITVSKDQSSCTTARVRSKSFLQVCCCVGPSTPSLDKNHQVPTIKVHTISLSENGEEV

[2] = biological target: Beta-1 adrenergic receptor (Homo sapiens, UniProt P08588); format: functional
[3] = biological target: Beta-2 adrenergic receptor (Homo sapiens, UniProt P07550)
[4] = biological target: T2, Cholecystokinin receptor type A (Homo sapiens, UniProt P32238)
T2 sequence (P32238 whole entry): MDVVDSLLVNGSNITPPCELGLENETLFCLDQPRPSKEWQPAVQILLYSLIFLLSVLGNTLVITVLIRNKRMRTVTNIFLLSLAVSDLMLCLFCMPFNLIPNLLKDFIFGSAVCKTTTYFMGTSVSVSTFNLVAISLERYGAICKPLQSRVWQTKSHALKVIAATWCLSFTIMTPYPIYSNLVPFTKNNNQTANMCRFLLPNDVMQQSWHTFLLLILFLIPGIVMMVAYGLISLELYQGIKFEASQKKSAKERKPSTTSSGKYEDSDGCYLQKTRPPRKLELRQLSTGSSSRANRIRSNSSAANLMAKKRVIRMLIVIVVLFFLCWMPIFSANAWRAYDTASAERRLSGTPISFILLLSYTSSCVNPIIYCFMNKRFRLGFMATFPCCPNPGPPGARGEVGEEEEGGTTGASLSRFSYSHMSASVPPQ

[5] = biological target: T3, Muscarinic acetylcholine receptor M2 (Homo sapiens, UniProt P08172); format: functional, cell-based
T3 sequence (P08172 whole entry): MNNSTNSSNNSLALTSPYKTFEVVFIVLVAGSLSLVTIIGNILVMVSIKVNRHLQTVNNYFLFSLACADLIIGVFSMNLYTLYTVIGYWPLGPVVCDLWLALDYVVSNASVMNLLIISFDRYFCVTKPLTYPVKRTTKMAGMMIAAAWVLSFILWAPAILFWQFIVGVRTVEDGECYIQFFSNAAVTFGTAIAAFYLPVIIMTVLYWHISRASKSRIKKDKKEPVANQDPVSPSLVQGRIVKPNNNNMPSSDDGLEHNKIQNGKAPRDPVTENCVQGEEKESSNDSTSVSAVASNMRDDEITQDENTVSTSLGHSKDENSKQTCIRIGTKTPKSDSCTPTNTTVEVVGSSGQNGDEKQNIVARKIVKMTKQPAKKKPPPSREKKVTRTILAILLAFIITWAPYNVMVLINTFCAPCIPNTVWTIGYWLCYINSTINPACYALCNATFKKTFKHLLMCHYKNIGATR

[6] = biological target: Gamma-aminobutyric acid receptor subunit alpha-1 (Rattus norvegicus, UniProt P62813); format: functional
[7] = biological target: Glutamate receptor ionotropic, NMDA 1 (Rattus norvegicus, UniProt P35439)
[8] = biological target: Voltage-gated inwardly rectifying potassium channel KCNH2 (Homo sapiens, UniProt Q12809); format: functional; conditions: read-out: AC50
[9] = biological target: Melanocortin receptor 3 (Homo sapiens, UniProt P41968)
[10] = biological target: Mu-type opioid receptor (Homo sapiens, UniProt P35372); test: biochemical; format: functional
[11] = biological target: T4, Equilibrative nucleoside transporter 1 (Homo sapiens, UniProt Q99808)
T4 sequence (Q99808 whole entry): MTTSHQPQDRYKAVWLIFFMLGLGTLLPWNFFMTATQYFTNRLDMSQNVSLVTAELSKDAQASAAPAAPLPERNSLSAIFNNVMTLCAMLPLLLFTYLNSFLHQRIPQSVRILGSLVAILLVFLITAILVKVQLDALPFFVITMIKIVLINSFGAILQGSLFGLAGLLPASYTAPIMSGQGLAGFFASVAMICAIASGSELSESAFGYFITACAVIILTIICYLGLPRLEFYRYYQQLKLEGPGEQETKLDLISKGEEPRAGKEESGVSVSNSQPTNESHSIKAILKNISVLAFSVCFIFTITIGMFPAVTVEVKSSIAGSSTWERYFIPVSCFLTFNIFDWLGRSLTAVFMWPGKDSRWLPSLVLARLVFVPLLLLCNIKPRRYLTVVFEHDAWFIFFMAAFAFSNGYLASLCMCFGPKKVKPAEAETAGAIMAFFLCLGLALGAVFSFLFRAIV

[12] = biological target: D(3) dopamine receptor (Homo sapiens, UniProt P35462)
[13] = biological target: Muscarinic acetylcholine receptor M3 (Homo sapiens, UniProt P20309)
Note: assay procedure not described here.

Sequence of Melanocortin receptor 3 (P41968 whole entry): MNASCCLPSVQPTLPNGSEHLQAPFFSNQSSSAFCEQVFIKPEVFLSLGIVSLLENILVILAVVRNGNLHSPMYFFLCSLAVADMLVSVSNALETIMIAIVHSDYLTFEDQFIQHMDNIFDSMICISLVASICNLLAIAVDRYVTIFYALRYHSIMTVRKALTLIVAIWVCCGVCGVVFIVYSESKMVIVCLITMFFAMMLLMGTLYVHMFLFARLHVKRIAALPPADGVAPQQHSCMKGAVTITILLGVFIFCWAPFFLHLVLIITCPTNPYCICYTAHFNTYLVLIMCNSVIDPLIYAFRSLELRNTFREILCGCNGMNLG
Sequence of Gamma-aminobutyric acid receptor subunit alpha-1 (P62813 whole entry): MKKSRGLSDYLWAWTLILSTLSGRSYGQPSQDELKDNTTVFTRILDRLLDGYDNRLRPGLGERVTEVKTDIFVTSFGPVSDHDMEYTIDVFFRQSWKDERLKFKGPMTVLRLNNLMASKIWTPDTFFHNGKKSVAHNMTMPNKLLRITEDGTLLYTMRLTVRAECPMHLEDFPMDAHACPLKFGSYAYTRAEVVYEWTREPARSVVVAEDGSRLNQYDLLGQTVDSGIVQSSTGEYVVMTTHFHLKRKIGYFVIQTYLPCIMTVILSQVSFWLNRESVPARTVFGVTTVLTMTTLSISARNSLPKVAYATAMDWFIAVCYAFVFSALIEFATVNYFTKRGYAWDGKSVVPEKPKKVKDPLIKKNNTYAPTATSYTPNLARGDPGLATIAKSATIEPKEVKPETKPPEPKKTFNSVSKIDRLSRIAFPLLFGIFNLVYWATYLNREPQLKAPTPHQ
Sequence of Beta-2 adrenergic receptor (P07550 whole entry): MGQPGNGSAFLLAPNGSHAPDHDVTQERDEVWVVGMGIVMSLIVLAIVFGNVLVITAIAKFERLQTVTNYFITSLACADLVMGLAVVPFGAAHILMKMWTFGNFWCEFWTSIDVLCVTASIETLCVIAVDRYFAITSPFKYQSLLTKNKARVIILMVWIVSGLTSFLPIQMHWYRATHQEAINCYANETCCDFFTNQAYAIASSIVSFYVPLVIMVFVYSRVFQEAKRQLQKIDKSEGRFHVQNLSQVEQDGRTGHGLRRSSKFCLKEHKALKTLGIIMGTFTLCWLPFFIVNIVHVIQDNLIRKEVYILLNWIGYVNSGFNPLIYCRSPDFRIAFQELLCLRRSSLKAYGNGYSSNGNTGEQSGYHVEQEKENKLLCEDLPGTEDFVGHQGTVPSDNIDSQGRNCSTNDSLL
Sequence of D(3) dopamine receptor (P35462 whole entry): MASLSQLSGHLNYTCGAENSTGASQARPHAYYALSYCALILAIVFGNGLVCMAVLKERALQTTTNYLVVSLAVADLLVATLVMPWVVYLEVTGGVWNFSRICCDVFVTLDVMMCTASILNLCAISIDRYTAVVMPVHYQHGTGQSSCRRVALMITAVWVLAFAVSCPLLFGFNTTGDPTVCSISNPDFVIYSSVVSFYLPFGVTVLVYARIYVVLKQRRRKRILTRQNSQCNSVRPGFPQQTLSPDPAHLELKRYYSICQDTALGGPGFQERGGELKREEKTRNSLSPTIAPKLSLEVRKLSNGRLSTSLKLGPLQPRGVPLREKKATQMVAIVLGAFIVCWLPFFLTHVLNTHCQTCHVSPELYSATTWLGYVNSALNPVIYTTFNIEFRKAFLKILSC
Sequence of Voltage-gated inwardly rectifying potassium channel KCNH2 (Q12809 whole entry): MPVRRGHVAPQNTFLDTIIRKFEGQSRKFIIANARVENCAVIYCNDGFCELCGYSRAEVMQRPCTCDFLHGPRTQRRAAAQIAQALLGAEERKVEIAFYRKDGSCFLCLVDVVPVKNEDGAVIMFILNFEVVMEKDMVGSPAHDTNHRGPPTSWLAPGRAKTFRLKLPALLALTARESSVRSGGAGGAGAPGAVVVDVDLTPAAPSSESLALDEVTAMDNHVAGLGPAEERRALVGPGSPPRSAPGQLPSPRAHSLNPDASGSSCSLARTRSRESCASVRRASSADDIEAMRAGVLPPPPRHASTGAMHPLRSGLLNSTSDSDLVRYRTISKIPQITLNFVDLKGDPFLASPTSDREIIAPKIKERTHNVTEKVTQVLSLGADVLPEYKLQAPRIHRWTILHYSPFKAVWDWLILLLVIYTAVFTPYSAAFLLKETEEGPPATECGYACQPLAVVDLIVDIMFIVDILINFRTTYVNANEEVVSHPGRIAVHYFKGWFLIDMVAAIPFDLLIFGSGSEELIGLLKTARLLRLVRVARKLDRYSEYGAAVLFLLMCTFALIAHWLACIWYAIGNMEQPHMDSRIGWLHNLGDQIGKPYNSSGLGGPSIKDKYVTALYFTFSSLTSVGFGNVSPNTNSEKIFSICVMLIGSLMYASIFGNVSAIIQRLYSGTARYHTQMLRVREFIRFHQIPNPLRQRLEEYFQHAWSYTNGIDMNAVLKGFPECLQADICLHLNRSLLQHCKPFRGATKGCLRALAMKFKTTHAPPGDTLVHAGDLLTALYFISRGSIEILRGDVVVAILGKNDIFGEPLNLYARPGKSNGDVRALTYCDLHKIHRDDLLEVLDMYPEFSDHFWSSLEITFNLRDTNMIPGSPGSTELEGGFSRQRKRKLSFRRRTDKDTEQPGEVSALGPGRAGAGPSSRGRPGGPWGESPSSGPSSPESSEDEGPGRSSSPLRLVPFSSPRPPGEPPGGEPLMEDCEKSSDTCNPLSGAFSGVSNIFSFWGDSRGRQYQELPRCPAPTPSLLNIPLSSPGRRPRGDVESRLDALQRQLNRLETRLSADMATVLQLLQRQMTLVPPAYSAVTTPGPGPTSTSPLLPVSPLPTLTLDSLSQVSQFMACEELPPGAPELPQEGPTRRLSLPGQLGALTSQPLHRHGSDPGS
Sequence of Mu-type opioid receptor (P35372 whole entry): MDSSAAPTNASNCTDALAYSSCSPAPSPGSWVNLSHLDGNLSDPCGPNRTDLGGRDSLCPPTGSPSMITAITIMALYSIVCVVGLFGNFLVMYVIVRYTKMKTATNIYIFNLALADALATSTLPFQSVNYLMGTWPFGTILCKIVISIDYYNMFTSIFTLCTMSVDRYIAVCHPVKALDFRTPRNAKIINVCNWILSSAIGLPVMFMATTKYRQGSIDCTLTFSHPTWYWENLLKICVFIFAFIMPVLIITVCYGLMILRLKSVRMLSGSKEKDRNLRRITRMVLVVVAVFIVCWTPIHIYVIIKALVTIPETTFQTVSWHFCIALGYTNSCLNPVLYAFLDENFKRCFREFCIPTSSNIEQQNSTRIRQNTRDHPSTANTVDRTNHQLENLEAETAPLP
Sequence of Beta-1 adrenergic receptor (P08588 whole entry): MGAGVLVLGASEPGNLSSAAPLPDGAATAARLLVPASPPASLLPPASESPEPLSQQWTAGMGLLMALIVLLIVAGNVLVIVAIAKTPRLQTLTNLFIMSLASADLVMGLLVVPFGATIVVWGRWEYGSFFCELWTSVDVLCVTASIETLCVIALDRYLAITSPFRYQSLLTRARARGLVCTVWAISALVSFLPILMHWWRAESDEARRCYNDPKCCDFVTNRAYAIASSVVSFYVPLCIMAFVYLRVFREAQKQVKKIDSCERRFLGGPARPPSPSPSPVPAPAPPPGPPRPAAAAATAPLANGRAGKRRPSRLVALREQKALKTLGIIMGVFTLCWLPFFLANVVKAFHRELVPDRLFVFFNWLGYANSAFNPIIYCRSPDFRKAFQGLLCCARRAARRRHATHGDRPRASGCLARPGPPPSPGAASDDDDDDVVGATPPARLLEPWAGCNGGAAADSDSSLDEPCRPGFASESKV
Sequence of Muscarinic acetylcholine receptor M3 (P20309 whole entry): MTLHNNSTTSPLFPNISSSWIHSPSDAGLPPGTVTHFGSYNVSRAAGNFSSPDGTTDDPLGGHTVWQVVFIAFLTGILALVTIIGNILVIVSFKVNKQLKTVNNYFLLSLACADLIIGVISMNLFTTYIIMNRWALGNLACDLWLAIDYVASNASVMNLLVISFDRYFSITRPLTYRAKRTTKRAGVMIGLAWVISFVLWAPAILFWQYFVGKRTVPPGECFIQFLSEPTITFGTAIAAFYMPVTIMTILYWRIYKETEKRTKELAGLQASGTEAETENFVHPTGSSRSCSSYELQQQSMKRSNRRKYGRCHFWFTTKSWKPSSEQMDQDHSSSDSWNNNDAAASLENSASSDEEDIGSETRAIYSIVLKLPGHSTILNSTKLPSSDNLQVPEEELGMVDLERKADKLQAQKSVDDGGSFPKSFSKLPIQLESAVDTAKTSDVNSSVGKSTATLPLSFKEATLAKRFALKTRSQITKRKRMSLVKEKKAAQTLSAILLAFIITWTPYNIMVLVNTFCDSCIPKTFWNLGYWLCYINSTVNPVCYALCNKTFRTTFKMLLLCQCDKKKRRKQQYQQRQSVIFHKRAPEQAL

Structure (SMILES) | AC50 [1] | AC50 [2] | AC50 [3] | AC50 [4] | AC50 [5] | AC50 [6] | AC50 [7] | AC50 [8] | AC50 [9] | AC50 [10] | AC50 [11] | AC50 [12] | AC50 [13]
COc1ccc2c(c1)c(CC(=O)OCC(=O)O)c(C)n2C(=O)c1ccc(Cl)cc1 [ACEMETACIN] | > 30 µM | > 30 µM | > 30 µM | > 30 µM | > 30 µM | > 30 µM | > 30 µM | > 30 µM | > 30 µM | > 30 µM | > 30 µM | > 30 µM | 
CC(C)c1c(C(=O)Nc2ccccc2)c(-c2ccccc2)c(-c2ccc(F)cc2)n1CC[C@@H](O)C[C@@H](O)CC(=O)O [ATORVASTATIN] | > 30 µM | > 10 µM | > 10 µM | > 30 µM |  | > 10 µM | > 10 µM |  | > 30 µM |  | > 30 µM | > 30 µM | 
CN1C(=O)COc2c(C(=O)NC3CN4CCC3CC4)cc(Cl)cc21 (stereo not given) [AZASETRON] | > 30 µM | > 30 µM | > 30 µM | > 30 µM | > 30 µM | > 30 µM | > 30 µM | 8.5 µM | > 30 µM | > 30 µM | > 30 µM | > 30 µM | 
Cc1cc2c(OCC(CNC(C)(C)C)OC(=O)c3ccccc3)cccc2[nH]1 (stereo not given) [BOPINDOLOL] | > 30 µM | 0.0048 µM | 0.0064 µM | > 30 µM | > 30 µM | > 30 µM | > 30 µM | 0.49 µM | > 30 µM | > 30 µM | > 30 µM | > 30 µM | 
CCCCN1CCCCC1C(=O)Nc1c(C)cccc1C (stereo not given) [BUPIVACAINE] |  | > 30 µM |  | > 30 µM | > 30 µM | > 30 µM | > 30 µM | 11 µM | > 30 µM | > 30 µM |  | > 30 µM | 
CC(=O)O[C@@]12CO[C@@H]1C[C@H](O)[C@@]1(C)C(=O)[C@H](O)C3=C(C)[C@@H](OC(=O)[C@H](O)[C@@H](NC(=O)OC(C)(C)C)c4ccccc4)C[C@@](O)([C@@H](OC(=O)c4ccccc4)[C@H]21)C3(C)C [DOCETAXEL ANHYDROUS] |  | > 30 µM | > 30 µM | > 30 µM | > 30 µM | > 30 µM | > 30 µM | > 30 µM | > 30 µM | > 30 µM | > 30 µM | > 30 µM | 
CN[C@@H](C)[C@H](O)c1ccccc1 [EPHEDRINE] | 13 µM | > 10 µM | > 10 µM | > 30 µM | 17 µM | > 10 µM | > 10 µM | > 30 µM | > 30 µM |  | > 30 µM | > 10 µM | > 10 µM
CCNC(C)Cc1cccc(C(F)(F)F)c1 (stereo not given) [FENFLURAMINE] |  |  |  | > 30 µM | > 30 µM | > 10 µM | > 10 µM | > 30 µM | > 30 µM |  | > 30 µM | 8 µM | 
COc1c(N2CCNC(C)C2)c(F)cc2c(=O)c(C(=O)O)cn(C3CC3)c12 (stereo not given) [GATIFLOXACIN] |  | > 10 µM | > 10 µM | > 10 µM | > 10 µM | > 10 µM | > 10 µM | 24 µM | > 10 µM | 28 µM | > 10 µM | > 30 µM | 
CCN1CCC[C@H]1CNC(=O)c1cc(S(N)(=O)=O)ccc1OC [LEVOSULPIRIDE] | > 30 µM | > 30 µM | > 30 µM | > 30 µM | > 10 µM | > 10 µM | > 10 µM | > 30 µM | > 30 µM |  |  |  | 
Cc1cccc(C)c1NC(=O)C1CCCCN1C (stereo not given) [MEPIVACAINE] | > 30 µM | > 30 µM |  | > 30 µM | > 30 µM | > 30 µM | > 30 µM | > 30 µM | > 30 µM | > 30 µM | > 30 µM | > 30 µM | 
COc1ccccc1OCC(O)COC(N)=O (stereo not given) [METHOCARBAMOL] |  | > 10 µM | > 10 µM | > 10 µM | > 10 µM | > 10 µM | > 10 µM | > 30 µM | > 10 µM |  | > 10 µM | > 30 µM | 
NC(=O)C[S+]([O-])C(c1ccccc1)c1ccccc1 (stereo not given) [MODAFINIL] | > 30 µM | > 10 µM | > 10 µM | > 30 µM | > 10 µM | > 10 µM | > 10 µM | > 30 µM | 21.2 µM |  | > 30 µM | > 10 µM | 
CCN(CC)CCOC(=O)c1ccc(N)cc1 [PROCAINE] | > 30 µM | > 10 µM | > 10 µM | > 30 µM | > 10 µM | > 10 µM | > 10 µM | > 30 µM | > 30 µM |  | > 30 µM | > 30 µM | 
CCCOc1ccc(C(=O)OCCN(CC)CC)cc1N [PROPARACAINE] | > 30 µM | > 30 µM |  | > 30 µM | > 30 µM | > 30 µM | > 30 µM | 6.4 µM | > 30 µM | > 30 µM | > 30 µM | > 30 µM | 
Nc1nc2ccc(OC(F)(F)F)cc2s1 [RILUZOLE] | > 30 µM | > 30 µM |  | > 30 µM | > 30 µM | > 30 µM | > 30 µM |  | > 30 µM | > 30 µM | > 30 µM | > 30 µM | 
C#CCN(C)[C@H](C)Cc1ccccc1 [SELEGILINE] | > 30 µM | > 10 µM | > 10 µM | > 10 µM | > 10 µM | > 10 µM | > 10 µM | > 30 µM | > 10 µM |  | > 10 µM | > 30 µM | 
CN[C@@H]1[C@H](O)[C@H](NC)[C@H]2O[C@@]3(O)C(=O)C[C@@H](C)O[C@H]3O[C@@H]2[C@H]1O [SPECTINOMYCIN] |  | > 10 µM | > 10 µM | > 10 µM | > 10 µM | > 10 µM | > 10 µM | > 30 µM | > 10 µM |  | > 10 µM | > 30 µM | 

— ChEMBL document CHEMBL5291721, “A preclinical secondary pharmacology resource illuminates target-adverse drug reaction associations of marketed drugs” (Nat Commun, 2023)
